GI50 and TGI data for 14 molecules are collected here from PubChem BioAssay (NCI).

Experiment in all cases: NCI-60 cell line screen, 48 h
The test system of test [1] is UO-31 renal.
For test [2], the system named is SNB-75 CNS.
The test system of test [3] is KM12 colon.
In test [4] the test system is HOP-62 NSCLC.
The test system of test [5] is OVCAR-8 ovarian.
Test [6] relates to IGROV1 ovarian.
The subject of test [7] is NCI/ADR-RES ovarian.
For test [8], the system named is SF-539 CNS.
For test [9], the system named is SK-OV-3 ovarian.
For test [10], the system named is NCI-H522 lung.

Each structure is given as a SMILES string.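 A five-concentration, 48-hour dose response in 96-well plates underlies each endpoint, interpolated linearly between surrounding concentrations. At the GI50, growth is halved. At the TGI there is no net growth.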 Some results are limits rather than exact numbers.

As for `Clc1ccc(C=Nc2ccc(-c3nc4ccccc4[nH]3)cc2)cc1`, the GI50 was more than 100 µM in [1]; 77.7 µM in test [2]; more than 100 µM in test [3]; more than 100 µM in test [4]; more than 100 µM in test [5]; more than 100 µM in [6]. Further, the GI50 in test [7], in [8], in [9] and in [10] was more than 100 µM in each case. Also, the TGI in test [1], in test [2], in test [3], in test [4], in [5] and in [6] was more than 100 µM each time. Besides, the TGI in test [7], in [8], in test [9] and in [10] was more than 100 µM in each case.

Regarding `COc1cc(C2CC(c3ccccc3)=NN2C=O)ccc1Oc1ccnc2cc(Cl)ccc12` (stereo not given), the GI50 in test [1] was 13.5 µM; in test [2] it was 3.31 µM; in test [3], more than 100 µM; in test [4], 12.4 µM; in test [5], 4.91 µM; in [6], 35 µM. Also, the GI50 is 3.23 µM in test [7], 10.3 µM in test [8], 4.56 µM in [9] and 5.28 µM in test [10]. Further, the TGI was more than 100 µM in [1]; 21 µM in [2]; more than 100 µM in [3]; 36.3 µM in test [4]; more than 100 µM in [5]; more than 100 µM in test [6]. The TGI in [7] is more than 100 µM; in [8], 77.9 µM; in test [9] it was more than 100 µM; in test [10], more than 100 µM.

Consider `COc1cccc(C2CC(=O)Nc3c2c(C)nn3-c2nc3ccccc3[nH]2)c1OC` (stereo not given), for which the GI50 in test [1] was 3.35 µM; in test [2], 2.43 µM; in test [3], 4.17 µM; in test [4], 2.73 µM; in test [5], 4.41 µM; in [6] it was 4.33 µM. For the same molecule, the GI50 in test [7] is 6.67 µM; in [8] it was 2.76 µM; in [9] it was 3.83 µM; in [10] it was 3.7 µM. The TGI in [1] was 23.6 µM; in [2], 13.5 µM; in test [3], 19.8 µM; in test [4] it was 7.78 µM; in [5], more than 100 µM; in test [6], 24 µM. The TGI in test [7] was more than 100 µM; in test [8], 9.38 µM; in [9] it was 13 µM; in test [10], 17.8 µM.

`CC1(C)CC(O)CC(C)(C)N1O`: the TGI in test [1], in test [2], in test [3], in test [4], in test [5] and in test [6] was more than 100 µM throughout. The TGI in test [7], in test [8], in test [9] and in [10] was more than 100 µM each time. The GI50 in test [10] is more than 100 µM.

Consider `CCCCCCCCCCCCCCCCCc1nc(Cl)nc(Cl)c1Cl`, for which the TGI in [1], in [2], in test [3], in test [4], in test [5] and in [6] was more than 100 µM throughout. Also, the TGI in [7], in test [8], in [9] and in [10] was more than 100 µM throughout.

Take `Nc1ncn([C@H]2CC(O)[C@@H](CO)S2)c(=O)n1` (stereo not given in full): the GI50 was 2.93 µM in test [1]; 53.9 µM in [2]; 3.27 µM in [3]; 4.63 µM in test [4]; 0.42 µM in [5]; 10.2 µM in test [6]. In addition, the GI50 was 0.559 µM in test [7], 16.7 µM in test [8], 28.9 µM in test [9] and 0.154 µM in test [10]. Moreover, the TGI in test [1], in [2], in test [3], in test [4], in test [5] and in [6] was more than 100 µM each time. For the same molecule, the TGI in test [7], in [8], in [9] and in [10] was more than 100 µM each time.

Turning to `Cc1nc2c(C)ccc([N+](=O)[O-])c2c(NCCCN(C)C)c1C`, the TGI in test [1] was more than 100 µM; in [2], more than 100 µM; in test [3], more than 100 µM; in test [4], more than 66.6 µM; in [5], more than 71.6 µM; in [6], more than 100 µM. For the same molecule, the TGI in [7], in test [8], in [9] and in test [10] was more than 100 µM in each case.

As for `CC1(C)N=C(N)N=C(N)N1c1ccc(CCCC(=O)Nc2ccc(S(=O)(=O)F)cc2)cc1`, the GI50 is more than 100 µM in test [1]; 10.2 µM in [2]; 3.54 µM in test [3]; 40.9 µM in [4]; 12.9 µM in [5]; 0.57 µM in test [6]. Also, the GI50 in [7] was more than 100 µM; in [8], 2.62 µM; in test [9], more than 100 µM; in [10], 8.4 µM. Moreover, the TGI in [1], in [2], in [3], in test [4], in test [5] and in test [6] was more than 100 µM throughout. Also, the TGI in test [7], in test [8], in test [9] and in test [10] was more than 100 µM throughout.

Turning to `COc1cc2ncn(-c3cc(OCc4ccccc4C(F)(F)F)c(C(N)=O)s3)c2cc1OC`, the GI50 in test [1] is more than 18.4 µM; in [2], 2.7 µM; in [3], 0.0958 µM; in [4], 0.197 µM; in [5], 0.168 µM; in test [6] it was 0.933 µM. The GI50 in test [7] was 0.15 µM; in test [8], 0.139 µM; in [9], 0.251 µM; in test [10], 0.168 µM. Moreover, the TGI is more than 25 µM in test [1]; 9.31 µM in test [2]; more than 25 µM in test [3]; 5.88 µM in [4]; more than 19.9 µM in test [5]; more than 25 µM in test [6]. For the same molecule, the TGI is more than 25 µM in test [7], more than 11.6 µM in test [8], 9.09 µM in test [9] and 3.67 µM in test [10].

Take `COc1cc2c(c(OC)c1OC)-c1cc(I)c(O)cc1[C@@H](NC(C)=O)CC2`: the GI50 is 0.556 µM in test [1]; 0.0332 µM in test [2]; 0.0432 µM in test [3]; 0.179 µM in test [4]; 0.187 µM in test [5]; 0.137 µM in [6]. Also, the GI50 in [7] was 0.681 µM; in [8] it was 0.0314 µM; in test [9], 0.0476 µM; in test [10] it was 0.0484 µM. Also, the TGI is more than 92.5 µM in [2]; 1.36 µM in [3]; more than 100 µM in [4]; more than 100 µM in test [5]; more than 31.6 µM in test [6]; more than 20.3 µM in test [7]. Further, the TGI was 0.178 µM in [8], more than 65.8 µM in test [9] and more than 100 µM in test [10].

With `O=c1ccc(N=Nc2ccccc2)ccc1O`, the TGI stood at 70.9 µM in test [1]; 57.8 µM in test [2]; 24.9 µM in test [3]; 24.4 µM in [4]; 43.9 µM in test [5]; 34.6 µM in test [6]. The TGI is 29.6 µM in [7], 37.2 µM in test [8], more than 100 µM in test [9] and 56.3 µM in [10].

Turning to `COc1cccc(/C=C2\N=C(c3ccccc3)OC2=O)c1`, the TGI in [1] was more than 100 µM; in [2], 77.1 µM; in [3] it was more than 100 µM; in test [4], more than 100 µM; in [5], more than 100 µM; in test [6] it was more than 100 µM. Also, the TGI in test [7] was 90.6 µM; in test [8] it was more than 100 µM; in test [9], more than 100 µM; in test [10], 42.5 µM.

With `O=[N+]([O-])c1ccccc1N=Nc1c(O)[nH]c2c(Cl)cccc12`, the TGI in test [1] was more than 67.2 µM; in test [2], 51.7 µM; in test [3] it was more than 80.3 µM; in test [4] it was 40.9 µM; in [5], 37.4 µM; in test [6], more than 47.8 µM. The TGI is more than 60.5 µM in test [7], more than 100 µM in test [8], 54.7 µM in test [9] and 26.1 µM in [10].

For `CN1C2C=CC(=O)C1C1C(=O)N(c3ccccc3)C(=O)C12` (stereo not given), the GI50 in [1] was 3.49 µM; in test [2] it was 13 µM; in test [3] it was 5.17 µM; in test [4], 12.4 µM; in test [5], 4.22 µM; in [6] it was 12.1 µM. Also, the GI50 in [7] is 17 µM; in test [8], 4.87 µM; in test [9], 26.7 µM; in test [10], 14.3 µM. The TGI in [1] came out at 17.9 µM; in test [2], 29.2 µM; in test [3], 18.4 µM; in test [4], 28.6 µM; in test [5], 20.3 µM; in test [6], 27.9 µM. The TGI in test [7] is 95.3 µM; in [8] it was 17.7 µM; in [9], more than 100 µM; in [10], 79.9 µM.
